Starred links: 1 amine or outer side, 2 acyl side, 3 side chain; linkers in the order of their positions; H or OH if unused. Residues, ends and D or L forms follow the SMILES beside them. Groups on a side chain read outwards from the residue. *: point of attachment. C20 diacid = O=C(O)CCCCCCCCCCCCCCCCCCC(=O)*; γGlu = O=C(O)[C@H](CCC(=O)[*:2])N[*:1]; AEEA = NCCOCCOCC(=O)O
Columns and labels:
[1] = Telemetry in Spontaneously Hypertensive Rats; format: in vivo; details: for Heart rate / Mean arterial pressure: rats
Source text: Blood pressure and heart rate were monitored in freely moving conscious animals by […] (DSI Data Science International, MN, USA). Female adult hypertensive rats (SHR) were implanted with transmitters. After shaving the abdominal wall, a midline abdominal incision was made, and the fluid-filled sensor catheter was inserted upstream into the exposed descending aorta between the iliac bifurcation and the renal arteries. According to the DSI guidelines the tip of the telemetric catheter was located just caudal to the renal arteries and secured by tissue adhesive. The transmitter body was affixed to the inner peritoneal - 3 - wall before closure of abdomen. A two-layer closure of the abdominal incision was used, with individual suturing of the peritoneum and the muscle wall followed by closure of the outer skin. Surgery was performed under aseptic conditions. For postsurgical protection against infections and pain a single dosage of an antibiotic (Ursocyclin 10% pro inj., Serumwerk, s.c.) and analgesic were injected (Rimadyl®, 4 mg/kg s.c., Pfizer, Germany). All animals were single-housed at 22-24°C ambient temperature and maintained on a 12/12 h dark-light cycle with free access to standard laboratory rat chow and water ad libitum.
All animals were treated with daily s.c. doses of vehicle or SEQ ID NO: 3, (10 or 30 nmol/kg) for 7 days (1 ml/kg). Drug administration took place at 9.00 a.m. (= 0 hours). For analysis, data were grouped to provide half-hourly averages.
For statistical analysis, 24 hours means were calculated starting from time of dosing. All data were evaluated using a 2-way ANOVA with Dunnett's test.

[2] = Myocardial ischemia (LAD ligation) model in rats; format: in vivo; details: MI rats; for Heart rate / Mean blood pressure: anesthetized, prior to termination
Source text: Wistar male rats were obtained from JanVier (Janvier Labs, France) at 6 weeks of age. The animals were pair-housed. During the study, animals had free access to food (RM1, SDS Dietex) and drinking water ad libitum.
Myocardial infarction (MI) was induced by chronic left anterior descending coronary artery (LAD) ligation performed at day zero. Sham operated animals were subjected to the same protocol; after the left lateral thoracotomy exposing the heart, the rib cage was closed without passing the suture thread around LAD.
Treatments started at 1-month post-MI, in order to assess the potential beneficial effect of the candidate compound to prevent the progression of the pathology.
Rats underwent transthoracic echocardiographic (ECG) examination in order to assess cardiac morphology and function in a noninvasively way. Echocardiography was performed by using a digital ultrasound system (Vivid S60, GE Medical Systems) equipped with a 12 MHz phased-array and an 18 MHz linear-array transducer. Standard B-mode (Brightness-mode) and M-mode (Motion-mode) images of the heart were obtained in the two-dimensional (2D) parasternal long axis view (PSLA). LV parameters were measured and calculated as the mean of 3 consecutive cardiac cycles by a single blinded trained operator.
A total of four ECG exams were performed for all the animals. The first examination took place 5-7 days after surgery and was used as a control of the surgery. The second ECG was performed 1 month after LAD ligation. Based on the second ECG, MI rats included were randomized in […] homogeneous groups based on the left ventricular internal diameter in diastole (LVIDd), telediastolic (TeleD) volume, ejection fraction (EF) and fractional shortening (FS): Group 1 (Sham): n=10, group 2 (MI/Vehicle): n=19, group 3 (MI/Atenolol-Lisinopril-Spironolactone (A+L+S) 1-1-10 mg/kg): n=19, group 4 (MI/test peptide 30 nmol/kg): n=19 and group 5 (MI/test peptide 100 nmol/kg): n=19. Vehicle and test peptide were administrated daily SC and A+L+S were dosed through drinking water. The third and fourth ECG were done 2 and 3 months after surgery, and were used to assess the cardiac remodelling and function following MI. At the fourth ECG isovolumic relaxation time (IVRT) and cardiac output (CO) were also assessed by Doppler-echocardiography.
Prior to termination, hemodynamic measurements were performed under anaesthesia using a fluid-filled catheter (BLPR and TBM4m, World Precision Instrument). At termination, left soleus was dissected and weighed.
Statistical analyses were performed with the Graphpad 9 software. If values were normally distributed, a parametric analysis was performed. If samples were drawn from non-normal populations, a non-parametric analysis was performed. First, differences were assessed between Sham and MI/Vehicle using a t-test. Then, the treated MI groups were compared to MI/Vehicle using a one-way ANOVA followed by the appropriate post-hoc test.

[3] = SHR rats, daily s.c. 10 or 30 nmol/kg for 7 days
[4] = 2 months of treatment, 30 nmol/kg, ± SEM
[5] = 2 months of treatment, 100 nmol/kg, ± SEM
[6] = 2 months of treatment, compared to MI/Vehicle

CC[C@H](C)[C@H](N)C(=O)N[C@H](C(=O)N[C@@H](CC(C)C)C(=O)N[C@@H](CO)C(=O)N[C@@H](CC(C)C)C(=O)N[C@@H](CC(=O)O)C(=O)N[C@H](C(=O)N1CCC[C@H]1C(=O)N[C@H](C(=O)NCC(=O)N[C@@H](CC(C)C)C(=O)N[C@@H](CC(C)C)C(=O)N[C@@H](CCC(N)=O)C(=O)N[C@H](C(=O)N[C@@H](CC(C)C)C(=O)N[C@@H](CC(C)C)C(=O)N[C@@H](CCC(=O)O)C(=O)N[C@@H](CCC(N)=O)C(=O)N[C@@H](C)C(=O)N[C@@H](CCCNC(=N)N)C(=O)N[C@@H](C)C(=O)N[C@@H](CCCNC(=N)N)C(=O)N[C@@H](C)C(=O)N[C@@H](C)C(=O)N[C@@H](CCCNC(=N)N)C(=O)N[C@@H](CCC(=O)O)C(=O)N[C@@H](CCC(N)=O)C(=O)N[C@@H](C)C(=O)N[C@@H](CCCCNC(=O)COCCOCCNC(=O)COCCOCCNC(=O)CC[C@H](NC(=O)CC[C@H](NC(=O)CCCCCCCCCCCCCCCCCCC(=O)O)C(=O)O)C(=O)O)C(=O)N[C@H](C(=O)N[C@@H](CC(N)=O)C(=O)N[C@@H](C)C(=O)N[C@@H](CCC(=O)O)C(=O)N[C@H](C(=O)N[C@@H](CC(C)C)C(=O)N[C@@H](C)C(=O)N[C@@H](CCC(=O)O)C(=O)N[C@H](C(N)=O)C(C)C)[C@@H](C)CC)[C@@H](C)O)[C@@H](C)CC)[C@@H](C)CC)C(C)C)C(C)C [SEQ ID NO: 3] (H-IVLSLDVPIGLLQILLEQARARAAREQAK([AEEA-AEEA-γGlu-γGlu-C20 diacid])TNAEILAEV-NH2)
HR [1, 3]: transient and dose-dependent increase | blood pressure [1, 3]: transient and dose-dependent decrease | Heart rate ([1]; 10 nmol/kg, Day 0): 345.67 ± 5.3 BPM | Mean arterial pressure ([1]; 10 nmol/kg, Day 0): 130.83 ± 2.1 mmHg | Heart rate ([1]; 10 nmol/kg, Day 1): 330.67 ± 6.2 BPM | Mean arterial pressure ([1]; 10 nmol/kg, Day 1): 130.33 ± 1.8 mmHg | Heart rate ([1]; 10 nmol/kg, Day 2): 324.00 ± 5.2 BPM | Mean arterial pressure ([1]; 10 nmol/kg, Day 2): 136.17 ± 2.0 mmHg | Heart rate ([1]; 10 nmol/kg, Day 3): 324.00 ± 5.2 BPM | Mean arterial pressure ([1]; 10 nmol/kg, Day 3): 139.17 ± 2.3 mmHg | Heart rate ([1]; 10 nmol/kg, Day 4): 323.33 ± 7.4 BPM | Mean arterial pressure ([1]; 10 nmol/kg, Day 4): 137.67 ± 2.4 mmHg | Heart rate ([1]; 10 nmol/kg, Day 5): 320.50 ± 7.0 BPM | Mean arterial pressure ([1]; 10 nmol/kg, Day 5): 139.00 ± 2.9 mmHg | Heart rate ([1]; 10 nmol/kg, Day 6): 315.67 ± 7.2 BPM | Mean arterial pressure ([1]; 10 nmol/kg, Day 6): 138.50 ± 2.4 mmHg | Heart rate ([1]; 10 nmol/kg, Day -1): 314.50 ± 4.8 BPM | Mean arterial pressure ([1]; 10 nmol/kg, Day -1): 145.33 ± 3.1 mmHg | Heart rate ([1]; 30 nmol/kg, Day 0): 364.50 ± 5.4 BPM | Mean arterial pressure ([1]; 30 nmol/kg, Day 0): 126.25 ± 2.5 mmHg | Heart rate ([1]; 30 nmol/kg, Day 1): 334.00 ± 4.8 BPM | Mean arterial pressure ([1]; 30 nmol/kg, Day 1): 130.00 ± 2.4 mmHg | Heart rate ([1]; 30 nmol/kg, Day 2): 327.50 ± 2.7 BPM | Mean arterial pressure ([1]; 30 nmol/kg, Day 2): 141.00 ± 3.1 mmHg | Heart rate ([1]; 30 nmol/kg, Day 3): 325.88 ± 4.2 BPM | Mean arterial pressure ([1]; 30 nmol/kg, Day 3): 142.50 ± 2.7 mmHg | Heart rate ([1]; 30 nmol/kg, Day 4): 325.38 ± 6.4 BPM | Mean arterial pressure ([1]; 30 nmol/kg, Day 4): 141.00 ± 3.1 mmHg | Heart rate ([1]; 30 nmol/kg, Day 5): 323.50 ± 5.5 BPM | Mean arterial pressure ([1]; 30 nmol/kg, Day 5): 141.75 ± 2.6 mmHg | Heart rate ([1]; 30 nmol/kg, Day 6): 328.88 ± 5.8 BPM | Mean arterial pressure ([1]; 30 nmol/kg, Day 6): 141.75 ± 2.7 mmHg | Heart rate ([1]; 30 nmol/kg, Day -1): 322.38 ± 5.9 BPM | Mean arterial pressure ([1]; 30 nmol/kg, Day -1): 148.88 ± 3.1 mmHg | Body weight at termination ([2]; 30 nmol/kg, ± SEM): 550.1 ± 10.6 g | Left soleus mass ([2]; 30 nmol/kg, ± SEM): 274.9 ± 9.9 mg | Body weight at termination ([2]; 100 nmol/kg, ± SEM): 551.6 ± 6.7 g | Left soleus mass ([2]; 100 nmol/kg, ± SEM): 275.2 ± 6.8 mg | CO [2, 4]: 129.0 ± 5.1 mL/min | EF B-mode [2, 4]: 45.52 ± 1.2 % | EF M-mode [2, 4]: 46.42 ± 1.2 % | FS [2, 4]: 20.63 ± 0.5 % | IVRT [2, 4]: 21.81 ± 0.5 ms | LVIDd [2, 4]: 10.86 ± 0.2 mm | LVIDs [2, 4]: 8.63 ± 0.2 mm | LVPWd [2, 4]: 1.84 ± 0.04 mm | LVPWs [2, 4]: 2.94 ± 0.05 mm | SV [2, 4]: 0.41 ± 0.01 mL | CO [2, 5]: 125.4 ± 3.8 mL/min | EF B-mode [2, 5]: 45.55 ± 0.7 % | EF M-mode [2, 5]: 46.22 ± 0.7 % | FS [2, 5]: 20.46 ± 0.4 % | IVRT [2, 5]: 20.87 ± 0.3 ms | LVIDd [2, 5]: 10.94 ± 0.1 mm | LVIDs [2, 5]: 8.71 ± 0.1 mm | LVPWd [2, 5]: 1.63 ± 0.1 mm | LVPWs [2, 5]: 2.73 ± 0.05 mm | SV [2, 5]: 0.40 ± 0.02 mL | cardiac output [2, 6]: significant improvements | ejection fraction [2, 6]: significant improvements | fractional shortening [2, 6]: significant improvements | stroke volume [2, 6]: significant improvements | Heart rate ([2]; 30 nmol/kg): 348.8 ± 6.7 bpm | Mean blood pressure ([2]; 30 nmol/kg): 109.9 ± 4.0 mmHg | Heart rate ([2]; 100 nmol/kg): 353.2 ± 9.1 bpm | Mean blood pressure ([2]; 100 nmol/kg): 112.6 ± 4.3 mmHg | muscle mass ([2]; at termination): significant increase | Body weight at termination ([2]; compared to MI-Vehicle): weighed significantly more
